Structures are written as SMILES.

The target of the test is T1, human renin (Homo sapiens, UniProt P00797).
T1 construct: A human plasma pool is used as the source of both the substrate (angiotensinogen) and the enzyme (renin); from tissue; host or cells: human plasma pool
T1 sequence (P00797 67-406): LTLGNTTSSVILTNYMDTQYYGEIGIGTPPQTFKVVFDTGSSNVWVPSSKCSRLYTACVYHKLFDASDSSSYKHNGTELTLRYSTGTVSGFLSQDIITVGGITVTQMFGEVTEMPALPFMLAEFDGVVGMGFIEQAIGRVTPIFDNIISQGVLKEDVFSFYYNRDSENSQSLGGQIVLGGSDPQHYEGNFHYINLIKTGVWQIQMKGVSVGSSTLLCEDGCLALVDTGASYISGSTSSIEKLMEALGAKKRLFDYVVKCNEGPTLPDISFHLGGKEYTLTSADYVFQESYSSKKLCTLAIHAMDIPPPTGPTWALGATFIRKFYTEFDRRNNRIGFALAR
Nature of the test: Plasma renin assay (inhibition of human renin, angiotensin I by RIA). The test is classed as biochemical. The conditions noted are these: human plasma pool, pH 6.0, 2 h incubation at 37°. As to the method: The assay is performed as follows: The test compound (i.e. the inhibitor) is dissolved in dimethylsulfoxide (1 mM stock solution) and diluted with an aqueous buffer solution of 270 mM 2-(N-morpholino)ethanesulfonic acid and 1% human serum albumin (pH 5.85, also containing dimercaprol and 8-hydroxyquinoline sulfate in accordance with the instructions of the RIA kit noted below) to give an assay mixture in which the final dimethylsulfoxide content is 1% (v/v).
A human plasma pool is used as the source of both the substrate (angiotensinogen) and the enzyme (renin). The reaction is initiated by the addition of 50 μL of human plasma pool to 50 μL of various concentrations of inhibitor in the 1% dimethylsulfoxide assay buffer. The plasma renin activity is measured by the amount of angiotensin I generated at pH 6.0 following a 2 h incubation at 37°.
Quantitation of angiotensin I is performed by radioimmunoassay (RIA kit from New England Nuclear-Dupont, Mississauga, ON, Canada). The enzymatic activity of renin is expressed in ng of angiotensin I generated (/mL/2 h). The extent of inhibition of the reaction is determined from the amount of angiotensin I generated in reference to a control prepared without inhibitor. Nonlinear regression analysis is used to calculate the IC50 values, i.e. the molar concentration of the test compound required to cause a 50% inhibition of the enzyme activity.
As to `CC(C)C[C@H](O)[C@H](O)[C@H](CC1CCCCC1)NC(=O)[C@@H](CC(=O)N(CC(=O)N1CCOCC1)CC1CCCCC1)CC1CC1` [Compound 35, N^4-(cyclohexylmethyl)-N^4-(2-morpholino-2-oxoethyl)-N^1-[1(S)-(cyclohexylmethyl)-2(R),3(S)-dihydroxy-5-methylhexyl]-2(R)-(cyclopropylmethyl)butanediamide], the half-maximal inhibitory concentration (IC50) (in general, the midpoint of a concentration-inhibition curve) was 8 nM. With `CC(C)C[C@H](O)[C@H](O)[C@H](CC1CCCCC1)NC(=O)[C@@H](CC(=O)N(CC(=O)N(C)C)CC1CCCCC1)Cc1cscn1` [Compound 36, N^4-(cyclohexylmethyl)-N^4-[2-(dimethylamino)-2-oxoethyl]-N^1-[1(S)-(cyclohexylmethyl)-2(R),3(S)-dihydroxy-5-methylhexyl]-2(R)-(4-thiazolylmethyl)butanediamide] the figure was 1.5 nM; with `CC(C)C[C@H](O)[C@H](O)[C@H](CC1CCCCC1)NC(=O)[C@@H](CC(=O)N(CC(=O)N(C)C)CC1CCCCC1)Cc1nccs1` [Compound 37, N^4-(cyclohexylmethyl)-N^4-[2-(dimethylamino)-2-oxoethyl]-N^1-[1(S)-(cyclohexylmethyl)-2(R),3(S)-dihydroxy-5-methylhexyl]-2(S)-(2-Thiazolylmethyl)butanediamide], 1.6 nM. With `CC(C)C[C@H](O)[C@H](O)[C@H](CC1CCCCC1)NC(=O)[C@@H](CC(=O)N(CC(=O)N(C)C)[C@@H](C)C1CCCCC1)CC1CC1` [Compound 38, N^4-(1(S)-cyclohexylethyl)-N^4-[2-(dimethylamino)-2-oxoethyl]-N^1-[1(S)-(cyclohexylmethyl)-2(R),3(S)-dihydroxy-5-methylhexyl]-2(R)-(cyclopropylmethyl)butanediamide] the figure was 8.3 nM; with `CC(C)C[C@H](O)[C@H](O)[C@H](CC1CCCCC1)NC(=O)[C@@H](CC(=O)N(CC(=O)N1CCOCC1)CC1CCCCC1)Cc1nccs1` [Compound 39, N^4-(cyclohexylmethyl)-N^4-(2-morpholino-2-oxoethyl)-N^1-[1(S)-(cyclohexylmethyl)-2(R),3(S)-dihydroxy-5-methylhexyl]-2(S)-(2-thiazolylmethyl)butanediamide], 1.6 nM. As for `CC(C)C[C@H](O)[C@H](O)[C@H](CC1CCCCC1)NC(=O)[C@@H](CC(=O)N(CC(=O)N(C)C)C[C@@H](C)c1ccccc1)Cc1nccs1` [Compound 40, N^4-[2-(dimethylamino)-2-oxoethyl]-N^4-[2 (S)-phenylpropyl]-N^1-[1(S)-(cyclohexylmethyl)-2(R),3(S)-dihydroxy-5-methylhexyl]-2(S)-(2-thiazolylmethyl)butanediamide], the figure is 6.7 nM; as for `CC(C)C[C@H](O)[C@H](O)[C@H](CC1CCCCC1)NC(=O)[C@@H](CC(=O)N(CC(=O)N(C)CCc1ccccn1)Cc1ccccc1)Cc1nccs1` [Compound 41, N^4-benzyl-N^4 -{2-{methyl[2-(2-pyridinyl)ethyl]amino}-2-oxoethyl}-N^1-[1(S)-(cyclohexylmethyl)-2(R),3(S)-dihydroxy-5-methylhexyl]-2(S)-(2-thiazolylmethyl)butanediamide], 3.5 nM; as for `C[C@@H](c1ccccc1)N(CC(=O)N(C)C)C(=O)C[C@@H](CC1CC1)C(=O)N[C@@H](CC1CCCCC1)[C@@H](O)[C@@H]1CC(C)(C)N(C)C1=O` [Compound 42, N^4-[2-(dimethylamino)-2-oxoethyl]-N^4-[1(S)-phenylethyl]-N^1-[1(S)-(cyclohexylmethyl)-2(S)-hydroxy-2-(1,5,5-trimethyl-2-oxopyrrolidin-3(S)-yl)ethyl]-2(R)-(cyclopropylmethyl)butanediamide], 55 nM.

Take `C[C@@H](c1ccccc1)N(CC(=O)N(C)C)C(=O)C[C@@H](Cc1csc(N)n1)C(=O)N[C@@H](CC1CCCCC1)[C@@H](O)[C@@H](O)C1CC1` [Compound 43, N^4-[2-(dimethylamino)-2-oxoethyl]-N^4-[1(S)-phenylethyl]-N^1-[1(S)-(cyclohexylmethyl)-2(R),3(S)-dihydroxy-(3-cyclopropylpropyl)]-2(R)-[(2-amino-4-thiazolyl)methyl]-butanediamide]: the half-inhibitory concentration (IC50) worked out at 6.8 nM. In turn, `C[C@@H](c1ccccc1)N(CC(=O)N(C)C)C(=O)C[C@@H](Cc1csc(N)n1)C(=O)N[C@@H](CC1CCCCC1)[C@@H](O)[C@@H]1CC(C)(C)N(C)C1=O` [Compound 44, N^4-[2-(dimethylamino)-2-oxoethyl]-N^4-[1(S)-phenylethyl]-N^1-[1(S)-(cyclohexylmethyl)-2(S)-hydroxy-2-(1,5,,5-trimethyl-2-oxopyrrolidin-3(S)-yl)ethyl]-2(R)-[(2-amino-4-thiazolyl)methyl]butanediamide] gave an IC50 of 2.4 nM. Turning to `CC(C)OC(=O)[C@H](O)[C@H](CC1CCCCC1)NC(=O)[C@@H](CC(=O)N(CC(=O)N(C)C)[C@@H](C)c1ccccc1)Cc1csc(N)n1` [Compound 45, N^4-[2-(dimethylamino)-2-oxoethyl]-N^4-[1(S)-phenylethyl]-N^4-[1(S)-(cyclohexylmethyl)-2(R)-hydroxy-3-(1-methylethoxy)-3-oxopropyl]-2(R)-[(2-amino-4-thiazolyl)methyl]-butanediamide], the IC50 amounted to 16 nM. `CC(C)C[C@H](O)[C@H](O)[C@H](CC1CCCCC1)NC(=O)[C@@H](CC(=O)N(CC(=O)N(C)CCc1ccccn1)CC1CCCCC1)CC1CC1` [Compound 46, N^4-(cyclohexylmethyl)-N^4 -{2-{methyl-[2-(2-pyridinyl)-ethyl]amino}-2-oxoethyl}-N^1-[1(S)-(cyclohexylmethyl)-2(R),3(S)-dihydroxy-5-methylhexyl]-2(R)-(cyclopropylmethyl)butanediamide] displayed a 50% inhibitory concentration (IC50) of 12 nM.

Compound `Cc1nc(C[C@H](CC(=O)N(CC(=O)N(C)C)CC2CCCCC2)C(=O)N[C@@H](CC2CCCCC2)[C@@H](O)[C@@H](O)CC(C)C)cs1` [Compound 47, N^4-(cyclohexylmethyl)-N^4-[2-(dimethylamino)-2-oxoethyl]-N^1-[1(S)-(cyclohexylmethyl)-2(R),3(S)-dihydroxy-5-methylhexyl]-2(R)-[(2-methyl-4-thiazolyl)methyl]butanediamide] showed a half-maximal inhibitory concentration (IC50) of 18.5 nM.

`CC(C)C[C@H](O)[C@H](O)[C@H](CC1CCCCC1)NC(=O)[C@@H](CC(=O)N(CC(=O)N(C)C)CC1CCCCC1)Cc1csc(N)n1` [Compound 48, N^4-(cyclohexylmethyl)-N^4-[2-(dimethylamino)-2-oxoethyl]-N^1-[1(S)-(cyclohexylmethyl)-2(R),3(S)-dihydroxy-5-methylhexyl]-2(R)-[(2-amino-4-thiazolyl)methyl]butanediamide] returned an IC50 of 0.9 nM. As for `CC(C)C[C@H](O)[C@H](O)[C@H](CC1CCCCC1)NC(=O)[C@@H](CC(=O)N(CC(=O)N1CCOCC1)CC1CCCCC1)Cc1csc(N)n1` [Compound 49], half-maximal inhibition (IC50) required 1.5 nM. Consider `CC(C)C[C@H](O)[C@H](O)[C@H](CC1CCCCC1)NC(=O)[C@@H](CC(=O)N(CC(=O)N(C)CCc1ccccn1)CC1CCCCC1)Cc1csc(N)n1` [Compound 50, N^4-(cyclohexylmethyl)-N^4 -{2-{methyl-[2-(2-pyridinyl)ethyl]-amino}-2-oxoethyl}-N^1-[1(S)-(cyclohexylmethyl)-2(R),3(S)-dihydroxy-5-methylhexyl]-2(R)-[(2-amino-4-thiazolyl)methyl]butanediamide], for which the half-inhibitory concentration (IC50) was 2.2 nM.
